# Laboratory results taken from patent US6951651B2, “CTL epitope analogs” (priority 1999, dated 2005).
# Ends that are not written are not given here.
# How the values were obtained:
# T cell clone VB57 = assay: Chromium release assay, peptide-sensitized targets lysed by T cell clone VB57; assay type: cell-based, human; conditions: for Peptide Concentration (nM), Amide, VB57: carboxyl terminal amide peptide
# From the text: (§1) To take advantage of the increased immunogenicity of peptides 44 and 46, while maintaining the universal recognition of the native peptide, library-directed changes were made to peptides 44 and 46, substituting back the native amino acids. A series of 21 peptides were constructed based upon the sequence of the tetra-substituted peptides 44 and 46 in each of the carboxyl terminal amidated and free acid forms. The peptides contained single, double, or triple substitutions of amino acids of the native sequence at the positions indicated. These peptides were assayed utilizing a standard chromium release assay with the screening T cell clone, 3-3F4, and a representative T cell clone (VB57) from another individual expressing a different T cell receptor.
# T cell clone 3-3F4 = assay: Chromium release assay, peptide-sensitized targets lysed by T cell clone 3-3F4; assay type: cell-based, human; conditions: for Peptide Concentration (nM), Free Acid, 3-3F4 / Peptide Concentration (nM), Amide, 3-3F4: chromium release, T cell clone 3-3F4; for Peptide Concentration (nM), Amide, 3-3F4: carboxyl terminal amide peptide; for Conc. (nM): concentration of peptide in which specific killing was between 15 and 30 percent: HLA A*0201-restricted EBVLCL targets, 3-3F4 effectors, E:T=5, 10-fold dilutions 500-0.00005 nM; for recognition by T cell clone 3-3F4 (in words): chromium release assay
# Procedure: Nonamer peptides with the substitutions as shown at each position were synthesized as described in Example 1. […] Results of these assays are shown in the right-hand column of Table II, in terms of concentration of peptide (nM) in which specific killing was between 15 and 30 percent. Results presented are the average from at least three independent experiments carried out on different days using different batches of T cell […]. Peptides were tested using 10-fold dilutions, ranging from 500-0.00005 nM.
# as §1
Substance,"Peptide Concentration (nM), Free Acid, 3-3F4 (T cell clone 3-3F4) [nM]","Peptide Concentration (nM), Amide, VB57 (T cell clone VB57) [nM]","Peptide Concentration (nM), Amide, 3-3F4 (T cell clone 3-3F4) [nM]",Conc. (nM): concentration of peptide in which specific killing was between 15 and 30 percent (T cell clone 3-3F4) [nM],further results
"125C: nonamer YLVPMVTSV, SEQ ID NO 72 (YLVPMVTSV-OH) [Peptide 125C]",>5,,,,"Peptide Concentration (nM), Free Acid, VB57 (T cell clone VB57): >5 nM"
"117C: nonamer NLLPMVTTV, SEQ ID NO 50 (NLLPMVTTV-OH) [Peptide 117C]",0.5,,,,"Peptide Concentration (nM), Free Acid, VB57 (T cell clone VB57): 5 nM"
"123C: nonamer YLLPMVASV, SEQ ID NO 78 (YLLPMVASV-OH) [Peptide 123C]",>5,,,,"Peptide Concentration (nM), Free Acid, VB57 (T cell clone VB57): >5 nM"
"116N: nonamer NLLPMVVTV amide, SEQ ID NO 47 (NLLPMVVTV-NH2) [Peptide 116N]",,>5,0.5,,
"59N: nonamer YLLWYVTPV amide, SEQ ID NO 34 (YLLWYVTPV-NH2) [Peptide 59N]",,,,>500,
"195C: nonamer YLLPMVATV, SEQ ID NO 58 (YLLPMVATV-OH) [Peptide 195C]",>5,,,,"Peptide Concentration (nM), Free Acid, VB57 (T cell clone VB57): >5 nM"
"123N: nonamer YLLPMVASV amide, SEQ ID NO 77 (YLLPMVASV-NH2) [Peptide 123N]",,0.5,0.05,,
"127C: nonamer NLLPMVTSV, SEQ ID NO 68 (NLLPMVTSV-OH) [Peptide 127C]",5,,,,"Peptide Concentration (nM), Free Acid, VB57 (T cell clone VB57): >5 nM"
"113N: nonamer YLVPMVVTV amide, SEQ ID NO 59 (YLVPMVVTV-NH2) [Peptide 113N]",,>5,0.5,,
"116C: nonamer NLLPMVVTV, SEQ ID NO 48 (NLLPMVVTV-OH) [Peptide 116C]",>5,,,,
"117N: nonamer NLLPMVTTV amide, SEQ ID NO 49 (NLLPMVTTV-NH2) [Peptide 117N]",,>5,0.05,,
"195N: nonamer YLLPMVATV amide, SEQ ID NO 57 (YLLPMVATV-NH2) [Peptide 195N]",,0.5,0.005,,
"111C: nonamer NLVPMVTTV, SEQ ID NO 44 (HCMV vaccine peptide) [Peptide 111C]",0.05,,,,"Peptide Concentration (nM), Free Acid, VB57 (T cell clone VB57): 5 nM; recognition by T cell clone 3-3F4 (in words) (T cell clone 3-3F4): equivalent to its amidated counterpart"
"126N: nonamer NLLPMVVSV amide, SEQ ID NO 65 (NLLPMVVSV-NH2) [Peptide 126N]",,0.5,0.005,,
"119N: nonamer NLVPMVVSV amide, SEQ ID NO 53 (NLVPMVVSV-NH2) [Peptide 119N]",,>5,0.005,,
"57N: nonamer YLLWYVVPV amide, SEQ ID NO 33 (YLLWYVVPV-NH2) [Peptide 57N]",,,,>500,
"53N: nonamer YLLWMVVPV amide, SEQ ID NO 25 (YLLWMVVPV-NH2) [Peptide 53N]",,,,500,
"50N: nonamer YLLPYVTSV amide, SEQ ID NO 31 (YLLPYVTSV-NH2) [Peptide 50N]",,,,>500,
"111N: nonamer NLVPMVTTV amide, SEQ ID NO 43 (NLVPMVTTV-NH2) [Peptide 111N]",,>5,0.05,,
"194C: nonamer NLLPMVATV, SEQ ID NO 40 (NLLPMVATV-OH) [Peptide 194C]",>5,,,,"Peptide Concentration (nM), Free Acid, VB57 (T cell clone VB57): >5 nM"
"48N: nonamer YLLPYVVSV amide, SEQ ID NO 29 (YLLPYVVSV-NH2) [Peptide 48N]",,,,>500,
"122N: nonamer YLLPMVTTV amide, SEQ ID NO 75 (YLLPMVTTV-NH2) [Peptide 122N]",,>5,5,,
"112N: nonamer NLVPMVASV amide, SEQ ID NO 45 (NLVPMVASV-NH2) [Peptide 112N]",,0.5,0.5,,
"49N: nonamer YLLPYVVPV amide, SEQ ID NO 30 (YLLPYVVPV-NH2) [Peptide 49N]",,,,>500,
"58N: nonamer YLLWYVTSV amide, SEQ ID NO 27 (YLLWYVTSV-NH2) [Peptide 58N]",,,,500,

Substance,"Peptide Concentration (nM), Free Acid, 3-3F4 (T cell clone 3-3F4) [nM]","Peptide Concentration (nM), Amide, VB57 (T cell clone VB57) [nM]","Peptide Concentration (nM), Amide, 3-3F4 (T cell clone 3-3F4) [nM]",Conc. (nM): concentration of peptide in which specific killing was between 15 and 30 percent (T cell clone 3-3F4) [nM],further results
"124N: nonamer YLVPMVVSV amide, SEQ ID NO 69 (YLVPMVVSV-NH2) [Peptide 124N]",,5,0.5,,
"110C: nonamer NLVPMVVTV, SEQ ID NO 42 (NLVPMVVTV-OH) [Peptide 110C]",0.5,,,,
"114C: nonamer YLVPMVTTV, SEQ ID NO 62 (YLVPMVTTV-OH) [Peptide 114C]",0.5,,,,"Peptide Concentration (nM), Free Acid, VB57 (T cell clone VB57): 5 nM"
"121N: nonamer YLLPMVVTV amide, SEQ ID NO 73 (YLLPMVVTV-NH2) [Peptide 121N]",,>5,5,,
"113C: nonamer YLVPMVVTV, SEQ ID NO 60 (YLVPMVVTV-OH) [Peptide 113C]",>5,,,,
"120C: nonamer NLVPMVTSV, SEQ ID NO 56 (NLVPMVTSV-OH) [Peptide 120C]",5,,,,"Peptide Concentration (nM), Free Acid, VB57 (T cell clone VB57): >5 nM"
"45N: nonamer YLLPMVVPV amide, SEQ ID NO 28 (YLLPMVVPV-NH2) [Peptide 45N]",,,,>500,recognition by T cell clone 3-3F4 (in words) (T cell clone 3-3F4): less active than the native sequence
"121C: nonamer YLLPMVVTV, SEQ ID NO 74 (YLLPMVVTV-OH) [Peptide 121C]",>5,,,,
"122C: nonamer YLLPMVTTV, SEQ ID NO 76 (YLLPMVTTV-OH) [Peptide 122C]",>5,,,,"Peptide Concentration (nM), Free Acid, VB57 (T cell clone VB57): >5 nM"
"110N: nonamer NLVPMVVTV amide, SEQ ID NO 41 (NLVPMVVTV-NH2) [Peptide 110N]",,>5,0.05,,
"124C: nonamer YLVPMVVSV, SEQ ID NO 70 (YLVPMVVSV-OH) [Peptide 124C]",>5,,,,"Peptide Concentration (nM), Free Acid, VB57 (T cell clone VB57): >5 nM"
"A7N: native sequence NLVPMVATV with amidated carboxyl terminus, SEQ ID NO 18 (NLVPMVATV-NH2) [Peptide A7N]",,,,0.5,
"112C: nonamer NLVPMVASV, SEQ ID NO 46 (NLVPMVASV-OH) [Peptide 112C]",5,,,,"Peptide Concentration (nM), Free Acid, VB57 (T cell clone VB57): 0.5 nM"
"126C: nonamer NLLPMVVSV, SEQ ID NO 66 (NLLPMVVSV-OH) [Peptide 126C]",5,,,,"Peptide Concentration (nM), Free Acid, VB57 (T cell clone VB57): >5 nM"
"55N: nonamer YLLWMVTPV amide, SEQ ID NO 26 (YLLWMVTPV-NH2) [Peptide 55N]",,,,500,
"56N: nonamer YLLWYVVSV amide, SEQ ID NO 22 (YLLWYVVSV-NH2) [Peptide 56N]",,,,50,
"114N: nonamer YLVPMVTTV amide, SEQ ID NO 61 (YLVPMVTTV-NH2) [Peptide 114N]",,5,0.05,,
"54N: nonamer YLLWMVTSV amide, SEQ ID NO 21 (YLLWMVTSV-NH2) [Peptide 54N]",,,,0.5,
"120N: nonamer NLVPMVTSV amide, SEQ ID NO 55 (NLVPMVTSV-NH2) [Peptide 120N]",,>5,0.05,,
"52N: nonamer YLLWMVVSV amide, SEQ ID NO 24 (YLLWMVVSV-NH2) [Peptide 52N]",,,,500,
"51N: nonamer YLLPYVTPV amide, SEQ ID NO 32 (YLLPYVTPV-NH2) [Peptide 51N]",,,,>500,
"119C: nonamer NLVPMVVSV, SEQ ID NO 54 (NLVPMVVSV-OH) [Peptide 119C]",>5,,,,"Peptide Concentration (nM), Free Acid, VB57 (T cell clone VB57): >5 nM"
"194N: nonamer NLLPMVATV amide, SEQ ID NO 39 (NLLPMVATV-NH2) [Peptide 194N]",,0.5,0.05,,
"47N: nonamer YLLPMVTPV amide, SEQ ID NO 23 (YLLPMVTPV-NH2) [Peptide 47N]",,,,500,recognition by T cell clone 3-3F4 (in words) (T cell clone 3-3F4): less active than the native sequence
